Measured values reported in PMC10816276 (International Journal of Molecular Sciences, 2024).
Converted amounts (≈) assume the structure as drawn. “Also recorded” adds a separate entry of the source.

Legend:
[1] = tested on: apple juice; assay: Browning inhibitory effect on apple juice; design: species or system Zhaotong Red Fuji apples; conditions: absorbance at 420 nm, compared to apple juice blank control
Procedure: To investigate the anti-browning effect of 6′-O-caffeoylarbutin, apple juice was used following a modified method based on the literature. Zhaotong Red Fuji apples were carefully chosen to ensure uniform shape, color, size, and maturity, free from any physical damage. After peeling, the apples were sliced into 10 g portions. These apple pieces were then immersed in solutions containing different concentrations of 6′-O-caffeoylarbutin for 10 min, followed by homogenization. The homogenized samples were subsequently subjected to centrifugation at 8000 rpm for 5 min at 4 °C, and the resulting supernatant (3 mL) was collected. Simultaneously, a blank control was prepared by extracting apple juice without the addition of any anti-browning agent. The absorbance of the samples at 420 nm was measured using a UV_vis spectrophotometer.

[2] = tested on: Human melanoma A375 tumor cells; assay: CCK-8 cell proliferation and cytotoxicity assay, A375; type: cell-based
Procedure: I. Cell lines and cell culture. Human melanoma A375 tumor cells and human immortalized keratinocyte (HaCaT) non-tumor cells were obtained from Nanjing Pusheng Biomedical Technology Co., Ltd. (Nanjing, China). The cells (A375/HaCaT) were cultured in Dulbecco’s modified Eagle’s medium (DMEM, Gibco, New York, NY, USA) supplemented with 10% (v/v) fetal bovine serum (FBS, Gibco, New York, NY, USA), and incubated at 37 °C with 5% CO2 in a humidified incubator.
II. Cell viability assay. Cell proliferation and cytotoxicity assays were conducted using the Cell counting kit-8 (CCK-8) on A375 and HaCaT cells. Briefly, the cells were initially seeded in 96-well plates at a density of 4 × 10^4 cells per well and incubated for 24 h at 37 °C with 5% CO2 in a humidified incubator. Each treatment was performed in six duplicate wells. The tested compounds were added at various concentrations, and the cells were then incubated for 72 h. Following the incubation period, CCK-8 solution (Dojindo Laboratories, Kumamoto, Japan) was added to each well, and the plates were further incubated for 2 h. The absorbance of each well at 450 nm was measured using an absorbance microplate reader (BioTek ELx800, Winooski, VT, USA). The assay included negative controls in which cells were treated with ultrapure water and positive controls in which cells were treated with 10 µg·mL^−1 taxol. The percentage of cell growth inhibition was calculated using the following Equation (3). (3) Cell growth inhibition rate [%]=B1−B2/B1−B3×100 where B1 represents the absorbance of a mixture containing cells, medium, and CCK-8 solution, B2 represents the absorbance of a mixture containing cells, medium, CCK-8 solution, and the test compound; and B3 represents a mixture containing medium and CCK-8 solution.

[3] = tested on: zebrafish; design: method as in PMID 24498931; conditions: live zebrafish model; cited from earlier work
[4] = biological target: T1, Mushroom tyrosinase (mTyr) (Agaricus bisporus, UniProt C7FF04); assay: Fluorescence quenching of mTyr; type: binding
T1 construct: purchased Sigma-Aldrich
T1 sequence (C7FF04 1-392): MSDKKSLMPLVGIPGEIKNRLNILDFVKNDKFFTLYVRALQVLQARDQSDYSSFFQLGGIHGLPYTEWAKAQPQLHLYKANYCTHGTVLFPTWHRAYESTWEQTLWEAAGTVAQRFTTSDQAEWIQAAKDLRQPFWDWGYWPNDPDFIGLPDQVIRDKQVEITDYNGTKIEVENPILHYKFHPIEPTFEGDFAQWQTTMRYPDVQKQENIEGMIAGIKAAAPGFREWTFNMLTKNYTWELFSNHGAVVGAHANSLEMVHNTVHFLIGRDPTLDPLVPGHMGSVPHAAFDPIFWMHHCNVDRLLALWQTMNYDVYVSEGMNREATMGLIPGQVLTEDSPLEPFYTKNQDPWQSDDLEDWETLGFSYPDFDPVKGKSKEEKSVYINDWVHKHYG
Text: Fluorescence quenching can be classified into static quenching and dynamic quenching. Static quenching occurs when quenching agents bind to fluorescent substances, forming complexes that result in quenching. Dynamic quenching, on the other hand, primarily arises from thermal motion and molecular collisions. The plot of F0/F against the concentration of 6′-O-caffeoylarbutin yielded a straight line with a good linear relationship (R^2 = 0.9802). […] Typically, the threshold value for the maximum collisional quenching rate constant between small molecular quenchers and large biomolecules is 2.0 × 10^10 L·(mol·s)^−1. If the calculated quenching rate constant is below this threshold, it indicates a dynamic quenching mechanism. Conversely, if the quenching rate constant exceeds this threshold, the quenching process may involve static quenching.
In the static quenching process, the relationship between fluorescence intensity and quencher concentration can be described by Equation (1). lg[(F0 − F)/F] = lgKa + nlg[Q](1) where F0 and F represent relative fluorescence intensities of the solution without and with the quencher, respectively. Ka represents the apparent binding constant between the enzyme and the quencher, n represents the number of binding sites on each biomacromolecule for the quencher, and [Q] denotes the concentration of the quencher. In this study, a double-logarithmic linear regression analysis of lg[(F0 − F)/F] against lg[Q] was conducted to evaluate the interaction between 6′-O-caffeoylarbutin and mTyr. Figure S5C illustrates the resulting regression line, which provided a slope and intercept for the calculation of Ka and n. The obtained values were determined as (10.79 ± 0.82) × 10^4 L∙mol^−1 and 0.79 ± 0.06, respectively. These findings indicate the formation of a stable complex between 6′-O-caffeoylarbutin and mTyr, involving a single binding site.
The fluorescence quenching role of 6′-O-caffeoylarbutin on mTyr was investigated using a RF-6000 fluorescence spectrophotometer (Shimadzu, Kyoto, Japan) with a xenon flash lamp as a light source, according to the literature with minor alterations. The excitation wavelength was 280 nm, with a scanning wavelength ranging from 290 to 500 nm at 37 °C. The excitation and emission bandwidths were 2.5 nm and 5.0 nm, respectively. A 3 mL mixture containing 2.0 mL of 31.25 U·mL^−1 mTyr solution, 0.5 mL of 6′-O-caffeoylarbutin solution (with 3% dimethyl sulfoxide) at concentrations from 0 to 100 μM, and 0.5 mL of PBS was used to collect the fluorescence intensity curves. The PBS served as the corresponding blank to correct the fluorescence intensities. The fluorescence quenching mechanism between mTyr and 6′-O-caffeoylarbutin was described using the Stern-Volmer Equation (2). (2) F0/F=1+KSVQ=1+Kqτ0[Q] where KSV is the Stern-Volmer quenching constant, [Q] represents the concentration of 6′-O-caffeoylarbutin, Kq is bimolecular quenching rate constant, and τ0 denotes the average lifetime of the fluorescence molecules in the absence of 6′-O-caffeoylarbutin (value is 10^−8 s).

SMILES: O=C(C=Cc1ccc(O)c(O)c1)OCC1OC(Oc2ccc(O)cc2)C(O)C(O)C1O (stereo not drawn) [6′-O-caffeoylarbutin]
- formation of browning compounds in apple juice [1]: significant reduction in the formation of browning compounds in a dose-dependent manner
- inhibition rate ([2]; 3.125–100 μg∙mL^−1, 72 h): below 5%
- inhibition at 200 µg/mL ([2]; Homo sapiens, A-375, 200 μg∙mL^−1, 72 h, read-out: inhibition rate): 20%
- inhibition at 400 µg/mL ([2]; Homo sapiens, A-375, 400 μg∙mL^−1, 72 h, read-out: inhibition rate): 67.8%
- IC50 ([2]; Homo sapiens, A-375, 72 h, CCK-8): 313 µg/mL (≈ 721 µM)
- inhibitory effect on melanin production relative to beta-arbutin [3]: approximately two-fold higher; also recorded: approximately twice as potent as that of beta-arbutin
- toxicity level relative to beta-arbutin [3]: around half that of beta-arbutin
- reduction of the peak of the fluorescence emission spectrum of mTyr ([4]; 25 μM): 37.18%
- decrease in the fluorescence emission spectrum of mTyr ([4]; 100 μM): 12.57%
- quenching rate constant Kq ([4]; Stern-Volmer, 37 °C): 4.11e+12 L·mol/s
- apparent binding constant Ka ([4]; double-logarithmic regression): 108000 L/mol
- number of binding sites n ([4]; double-logarithmic regression): 0.79 ± 0.06
